{
  "source": "patent US20050026979A1",
  "about": "“Methods for treating inflammation and inflammation-associated diseases with a statin and ether” (priority 2003, published 2005)",
  "test_system": "monosodium iodoacetate (\"MIA\")-induced knee joint arthritis",
  "assay": "Monosodium iodoacetate (MIA)-induced osteoarthritis joint pain model, acute dosing paradigm (hind paw weight distribution, incapacitance tester)",
  "assay_type": "in vivo, rat (male Wistar)",
  "details": "for Change in Hind Paw Weight Distribution: Day 7 post-MIA, mean, n=6",
  "procedure": "Monosodium Iodoacetate (“MIA”)-Induced Osteoarthritis:\nMale Wistar rats (175-200 g) were housed in solid bottom isolator cages, […], with corncob bedding on a 12 hour:12 hour light:dark cycle. Animals were fed standard rat chow with water available ad libitum.\nThe rats were anesthetized with 5% volume/volume (“v/v”) isoflurane gas and maintained with 2% v/v isoflurane gas. The anesthetized rats were given a single intra-articular injection of 1 mg of MIA through the infrapatellar ligament of the right knee. MIA was dissolved in physiologic saline and administered in a volume of 50 μL. The contralateral control knee was injected with 50 μL of physiologic saline. Administration of isoflurane gas was discontinued, and the rats became fully conscious about 5 minutes later.\nShifts in hind paw weight distribution from the right to the left hind paws supporting the right (arthritic) and the left (contralateral control) hind leg knee joints were utilized as an index of joint pain and as a measure of compound efficacy. An incapacitance tester (Model 2KG, Linton Instrumentation, UK) was employed for determination of hind paw weight distribution. Each data point is the mean of three readings of 5 seconds duration.\nThe acute dosing paradigm used herein relates to osteoarthritis signs such as mobility and joint function and osteoarthritis symptoms such as joint pain. In this dosing paradigm, changes in hind paw weight distribution were determined early on Day 7 post-MIA injection, as described previously, to establish a baseline pain reading. […] Changes in hind paw weight distribution were determined 2, 4 and 6 hours post-compound administration.\nMIA was injected into the right knee and saline into the left knee of all rats on Day 0. […] Two, four, and six hours later, the rats were re-assessed.\nStatistically significant differences were determined by one-way ANOVA followed by Dunnett's multiple comparisons procedure. Data are expressed as mean±SEM. N=6 rats per group.",
  "data": [
    {"molecule": "CC(C)(CCCCOCCCCC(C)(C)C(=O)[O-])C(=O)[O-].[Ca+2]", "note": "[Compound A, 6-(5-carboxy-5-methyl-hexyloxy)-2,2-dimethyl-hexanoic acid calcium salt]", "values": [
      {"measurement": "Change in Hind Paw Weight Distribution", "setting": "2 hr post-dose, Compound A 10 mg/kg PO", "value": 21, "unit": "g"},
      {"measurement": "Change in Hind Paw Weight Distribution", "setting": "4 hr post-dose, Compound A 10 mg/kg PO", "value": 15, "unit": "g"},
      {"measurement": "Change in Hind Paw Weight Distribution", "setting": "6 hr post-dose, Compound A 10 mg/kg PO", "value": 21, "unit": "g"},
      {"measurement": "Effect on shift in weight bearing potential (joint pain) versus vehicle, in words", "setting": "Compound A 10 mg/kg PO, 2, 4 and 6 hour post-dose time points", "value": "altered the shift in weight bearing potential (joint pain) in arthritic rats at the 2, 4 and 6 hour post-dose time points in a statistically significant manner"},
      {"measurement": "Change in Hind Paw Weight Distribution", "setting": "Pre-Dose (Baseline), group later given Compound A 10 mg/kg PO", "value": 32, "unit": "g"}
    ]}
  ]
}
